IC50 data for 97 molecules are collected here from the Kinase Knowledgebase extract (Sharma et al. 2016).

Each structure is given as a SMILES string.

In this assay the target is PIK3CG (human) (UniProt P48736). The assay is described as follows: Inhibition of PIK3CG Kinase Assay.
PIK3CG (human), sequence (P48736 whole entry, looked up): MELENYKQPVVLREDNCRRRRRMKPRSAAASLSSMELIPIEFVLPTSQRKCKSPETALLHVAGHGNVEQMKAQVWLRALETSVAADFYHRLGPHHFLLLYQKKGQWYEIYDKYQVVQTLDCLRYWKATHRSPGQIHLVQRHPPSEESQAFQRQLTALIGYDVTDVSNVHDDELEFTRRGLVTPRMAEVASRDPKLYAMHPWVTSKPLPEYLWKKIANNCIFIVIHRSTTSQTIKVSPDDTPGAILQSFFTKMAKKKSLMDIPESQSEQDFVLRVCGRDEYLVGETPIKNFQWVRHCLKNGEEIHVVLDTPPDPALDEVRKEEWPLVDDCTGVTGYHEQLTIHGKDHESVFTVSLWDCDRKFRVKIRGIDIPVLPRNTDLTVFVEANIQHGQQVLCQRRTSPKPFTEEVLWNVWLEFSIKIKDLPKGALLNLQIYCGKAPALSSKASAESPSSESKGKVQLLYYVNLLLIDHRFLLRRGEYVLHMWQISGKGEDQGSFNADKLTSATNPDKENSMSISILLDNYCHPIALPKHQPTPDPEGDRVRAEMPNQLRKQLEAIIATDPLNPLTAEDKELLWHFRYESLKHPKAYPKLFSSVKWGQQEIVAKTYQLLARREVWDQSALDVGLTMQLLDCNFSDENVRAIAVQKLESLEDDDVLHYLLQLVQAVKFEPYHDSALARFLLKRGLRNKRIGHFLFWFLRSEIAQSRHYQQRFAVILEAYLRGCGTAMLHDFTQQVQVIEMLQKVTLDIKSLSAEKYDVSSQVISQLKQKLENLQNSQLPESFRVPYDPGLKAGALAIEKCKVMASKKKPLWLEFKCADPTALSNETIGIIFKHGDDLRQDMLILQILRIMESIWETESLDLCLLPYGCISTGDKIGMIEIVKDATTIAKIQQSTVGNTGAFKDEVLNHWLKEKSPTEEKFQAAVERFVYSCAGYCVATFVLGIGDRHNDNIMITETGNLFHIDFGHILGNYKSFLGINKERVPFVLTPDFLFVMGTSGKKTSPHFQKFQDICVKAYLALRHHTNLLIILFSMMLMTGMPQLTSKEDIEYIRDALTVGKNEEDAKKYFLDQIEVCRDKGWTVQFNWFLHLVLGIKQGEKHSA
Consider `COc1c(OCC(=O)N(C)C)ccc2c1N=C(/C=C(\O)c1cccnc1)N1CCN=C21`, for which the half-maximal inhibitory concentration (IC50) was no more than 100 nM.

Molecule `CC(=O)Nc1ccc(/C(O)=C/C2=Nc3c(C)cccc3C3=NCCN23)cn1` displayed an IC50 of no more than 100 nM.

Molecule `O=C(NC1=Nc2cc(Cl)ccc2C2=NCCN12)c1ccc2[nH]cnc2c1` showed an IC50 of no more than 100 nM.

Take `CC(=O)Nc1ccc(/C(O)=C/C2=Nc3cc(N4CCN(C)CC4)ccc3C3=NCCN23)cn1`: the IC50 lay in the range of 100 to 500 nM.

The molecule `O/C(=C\C1=Nc2ccccc2C2=NCCN12)c1ccccn1` displayed an IC50 of 500 to 2000 nM.

As for `Cc1ncccc1C(=O)NC1=Nc2ccccc2C2=NCCN12`, the IC50 was no more than 100 nM.

`O/C(=C\C1=Nc2cc(CN3CCOCC3)ccc2C2=NCCN12)c1cccnc1` yielded a 50% inhibitory concentration (IC50) of 100 to 500 nM.

Turning to `COc1cccc2c1N=C(NC(=O)c1cc3cccnc3nc1C(F)(F)F)N1CCN=C21`, the IC50 is no more than 100 nM.

`O=C(NC1=Nc2c(F)cccc2C2=NCCN12)c1ccc2[nH]cnc2c1` gave an IC50 of no more than 100 nM.

`COc1ccc2c(c1)N=C(NC(=O)c1cccnc1)N1CCN=C21` gave an IC50 of 100 to 500 nM.

As to `Cc1cnc(C(=O)NC2=Nc3ccccc3C3=NCCN23)cn1`, the IC50 fell in the range of 500 to 2000 nM.

Take `Cc1cc(Br)c2c(c1)C1=NCCN1C(/C=C(\O)c1ccc3[nH]cnc3c1)=N2`: the half-inhibitory concentration (IC50) lay within 100 to 500 nM.

As for `O/C(=C\C1=Nc2ccccc2C2=NCCN12)c1ccno1`, the IC50 lay within 100 to 500 nM.

For the molecule `O=C(NC1=Nc2ccc(Cl)cc2C2=NCCN12)c1cccnc1`, the IC50 is no more than 100 nM.

For the molecule `O=C(NC1=Nc2cc(OCCOCCO)ccc2C2=NCCN12)c1cccnc1`, the IC50 fell in the range of 100 to 500 nM.

The molecule `CC(=O)Nc1ccc(C(=O)NC2=Nc3cc(N4CCOCC4)ccc3C3=NCCN23)cc1` came in with an IC50 of 100 to 500 nM.

For the molecule `O=C(NC1=Nc2cc(Cl)ccc2C2=NCCN12)c1cccnc1`, the IC50 fell in the range of 100 to 500 nM.

Turning to `O=C(NC1=Nc2ccccc2C2=NCCN12)c1ccc(Cl)cc1`, the IC50 was greater than 2000 nM.

The molecule `COc1cccc2c1N=C(/C=C(\O)c1cccnc1)N1CCN=C21` showed an IC50 of no more than 100 nM.

The molecule `O=C(NC1=Nc2ccccc2C2=NCCN12)c1cccc([N+](=O)[O-])c1` yielded an IC50 greater than 2000 nM.

`O/C(=C\C1=Nc2c(cccc2C(F)(F)F)C2=NCCN12)c1cccnc1` yielded an IC50 of 100 to 500 nM.

In the case of `O/C(=C\C1=Nc2ccccc2C2=NCCN12)c1cccnc1`, the IC50 lay in the range of 100 to 500 nM.

Consider `COc1c(OCC(N)=O)ccc2c1N=C(/C=C(\O)c1cccnc1)N1CCN=C21`, for which the IC50 is no more than 100 nM.

`COc1cccc2c1N=C(NC(=O)c1ccc3[nH]cnc3c1)N1CCN=C21` came in with a half-inhibitory concentration (IC50) of no more than 100 nM.

In the case of `COc1c(C)cc(C(=O)NC2=Nc3ccccc3C3=NCCN23)cc1C`, the IC50 was greater than 2000 nM.

For `CC(=O)Nc1ccc(/C(O)=C/C2=Nc3cc(CN4CCOCC4)ccc3C3=NCCN23)cn1`, the IC50 lay within 100 to 500 nM.

With `COc1cc(C(=O)NC2=Nc3ccccc3C3=NCCN23)cc(OC)c1C`, the IC50 was greater than 2000 nM.

For `O=C(NC1=Nc2ccc(Br)cc2C2=NCCN12)c1cccnc1`, the IC50 fell in the range of 100 to 500 nM.

For `O=C(O)CCc1ccc2c(n1)N=C(/C=C(\O)c1cccnc1)N1CCN=C21`, the IC50 lay in the range of 100 to 500 nM.

`COc1cc2c(cc1OC)C1=NCCN1C(NC(=O)c1ccc3[nH]cnc3c1)=N2` returned an IC50 of no more than 100 nM.

On to `O/C(=C\C1=Nc2ccccc2C2=NCCN12)c1cnccn1`, for which the IC50 fell in the range of 100 to 500 nM.

`COc1cc2c(cc1OC)C1=NCCN1C(/C=C(\O)c1sc(C)nc1C)=N2` gave an IC50 of no more than 100 nM.

The molecule `O/C(=C\C1=Nc2cc(N3CCOCC3)ccc2C2=NCCN12)c1cncc(O)c1` came in with an IC50 of no more than 100 nM.

With `COc1cc2c(c(OC)c1C)N=C(/C=C(\O)c1ccc3[nH]cnc3c1)N1CCN=C21`, the IC50 fell in the range of 100 to 500 nM.

`Cc1ccc2c(c1)C1=NCCN1C(/C=C(\O)c1cccnc1)=N2` had an IC50 of 100 to 500 nM.

`COc1ccc2c(c1)N=C(NC(=O)c1ccc(N)nc1)N1CCN=C21` returned an IC50 of no more than 100 nM.

For the molecule `O=C(NC1=Nc2ccc(F)cc2C2=NCCN12)c1cccs1`, the IC50 was 500 to 2000 nM.

`COc1ccc2c(c1OCCN1CCOCC1)N=C(/C=C(\O)c1cccnc1)N1CCN=C21` gave an IC50 of no more than 100 nM.

`O/C(=C\C1=Nc2cc(N3CCOCC3)ccc2C2=NCCN12)c1ccc2[nH]cnc2c1` returned a half-maximal inhibitory concentration (IC50) of no more than 100 nM.

With `COc1c(OCc2nn[nH]n2)ccc2c1N=C(/C=C(\O)c1cccnc1)N1CCN=C21`, the IC50 is no more than 100 nM.

The molecule `Cc1nc2ccccn2c1C(=O)NC1=Nc2ccccc2C2=NCCN12` came in with an IC50 of 100 to 500 nM.

`COc1cc2c(cc1OC)C1=NCCN1C(/C=C(\O)c1ccc3[nH]cnc3c1)=N2`: the IC50 was no more than 100 nM.

In turn, `Cc1cc(C(=O)NC2=Nc3ccccc3C3=NCCN23)cnc1N` came in with a concentration for half-maximal inhibition (IC50) of 100 to 500 nM.

In turn, `COc1cncc(C(=O)NC2=Nc3ccccc3C3=NCCN23)c1` yielded a half-inhibitory concentration (IC50) of 100 to 500 nM.

In turn, `COc1cc2c(c(OC)c1C)N=C(/C=C(\O)c1cccnc1)N1CCN=C21` registered an IC50 of no more than 100 nM.

As for `COc1cc2c(cc1OC)C1=NCCN1C(NC(=O)c1cncc(O)c1)=N2`, the IC50 was no more than 100 nM.

`O=C(NC1=Nc2cc(N3CCCCC3)ccc2C2=NCCN12)c1cccnc1` returned a 50% inhibitory concentration (IC50) of 100 to 500 nM.

Consider `O=C(NC1=Nc2cc(N3CCOCC3)ccc2C2=NCCN12)c1cncc(O)c1`, for which the half-inhibitory concentration (IC50) is no more than 100 nM.

For the molecule `COc1ccc2c(c1OC)N=C(NC(=O)c1cnc3[nH]cnc3c1)N1CCN=C21`, the IC50 was no more than 100 nM.

`COc1c(OCCO)ccc2c1N=C(/C=C(\O)c1cccnc1)N1CCN=C21` came in with an IC50 of no more than 100 nM.

The molecule `Cc1cccc2c1N=C(NC(=O)c1cccnc1)N1CCN=C21` returned an IC50 of 100 to 500 nM.

`O/C(=C\C1=Nc2cc(Cl)ccc2C2=NCCN12)c1cccnc1` yielded an IC50 of 100 to 500 nM.

The molecule `NS(=O)(=O)c1ccc(C(=O)NC2=Nc3ccccc3C3=NCCN23)cc1` displayed an IC50 of 500 to 2000 nM.

Consider `O=C(NC1=Nc2c(cccc2C(F)(F)F)C2=NCCN12)c1ccc2[nH]cnc2c1`, for which the IC50 was no more than 100 nM.

The molecule `COc1cc2c(c(OC)c1C)N=C(/C=C(\O)c1ccc(NC(C)=O)nc1)N1CCN=C21` had an IC50 of no more than 100 nM.

In the case of `O=C(NC1=Nc2ccccc2C2=NCCN12)c1ccco1`, the IC50 was in the range of 500 to 2000 nM.

On to `O/C(=C\C1=Nc2ccccc2C2=NCCN12)c1csc2ccccc12`, for which the IC50 was greater than 2000 nM.

Regarding `O/C(=C\C1=Nc2cc(N3CCN(Cc4ccccc4)CC3)ccc2C2=NCCN12)c1cccnc1`, the IC50 fell in the range of 100 to 500 nM.

Consider `O=C(NC1=Nc2ccccc2C2=NCCN12)c1cnccn1`, for which the IC50 lay in the range of 500 to 2000 nM.

In turn, `COc1ccc2c(c1)N=C(NC(=O)c1ccc3[nH]cnc3c1)N1CCN=C21` returned an IC50 of no more than 100 nM.

On to `Cc1ccncc1C(=O)NC1=Nc2ccccc2C2=NCCN12`, for which the IC50 was in the range of 100 to 500 nM.

Take `COc1ccc2c(c1)C1=NCCN1C(/C=C(\O)c1cccnc1)=N2`: the IC50 fell in the range of 100 to 500 nM.

Turning to `CCn1nc(C)cc1C(=O)NC1=Nc2ccccc2C2=NCCN12`, the IC50 is 100 to 500 nM.

`Cc1cc(C(=O)NC2=Nc3ccccc3C3=NCCN23)cc(C)c1[N+](=O)[O-]` displayed an IC50 greater than 2000 nM.

Regarding `CCOC(=O)c1cc(C(=O)NC2=Nc3ccccc3C3=NCCN23)cc(C(=O)OCC)c1`, the IC50 was greater than 2000 nM.

In turn, `Cc1cccc2c1N=C(NC(=O)c1ccc3[nH]cnc3c1)N1CCN=C21` yielded an IC50 of no more than 100 nM.

`Cc1cccc2c1N=C(/C=C(\O)c1cccnc1)N1CCN=C21` yielded an IC50 of 100 to 500 nM.

Molecule `O=C(NC1=Nc2ccccc2C2=NCCN12)c1ccc(-n2cccn2)cc1` had an IC50 greater than 2000 nM.

For `O/C(=C\C1=Nc2ccccc2C2=NCCN12)c1cccs1`, the IC50 was no more than 100 nM.

Turning to `C=Cc1ccc2c(c1)C1=NCCN1C(NC(=O)c1cccnc1)=N2`, the IC50 fell in the range of 100 to 500 nM.

The molecule `Cc1ccc2c(c1)N=C(NC(=O)c1cccnc1)N1CCN=C21` had an IC50 of no more than 100 nM.

In turn, `O=C(NC1=Nc2ccccc2C2=NCCN12)c1csc(-c2ccncc2)n1` came in with an IC50 greater than 2000 nM.

Consider `O/C(=C\C1=Nc2c(Br)cccc2C2=NCCN12)c1cccnc1`, for which the half-maximal inhibitory concentration (IC50) lay in the range of 100 to 500 nM.

As for `O=C(NC1=Nc2cc(OCCO)ccc2C2=NCCN12)c1cccnc1`, the IC50 lay in the range of 100 to 500 nM.

`O/C(=C\C1=Nc2ccc(Cl)cc2C2=NCCN12)c1cccnc1` registered an IC50 of 100 to 500 nM.

In turn, `Cc1ccc(C(=O)NC2=Nc3cc(N4CCOCC4)ccc3C3=NCCN23)cn1` displayed an IC50 of no more than 100 nM.

As for `CC(=O)Nc1ccc(C(=O)NC2=Nc3ccccc3C3=NCCN23)cn1`, the IC50 was no more than 100 nM.

Molecule `O/C(=C\C1=Nc2ccccc2C2=NCCN12)c1ccco1` had a half-inhibitory concentration (IC50) of 100 to 500 nM.

In turn, `COc1cccc2c1N=C(NC(=O)c1cccnc1Cl)N1CCN=C21` registered an IC50 of no more than 100 nM.

`O/C(=C\C1=Nc2c(CN3CCOCC3)cccc2C2=NCCN12)c1cccnc1`: the IC50 was in the range of 100 to 500 nM.

Consider `O=C(NC1=Nc2ccccc2C2=NCCN12)c1csc(-c2cccnc2)n1`, for which the IC50 is greater than 2000 nM.

Regarding `Cc1ccc(C(=O)NC2=Nc3ccccc3C3=NCCN23)c(Cl)n1`, the IC50 is 500 to 2000 nM.

Take `O=C(NC1=Nc2ccccc2C2=NCCN12)c1ccc(-n2ccnc2)cc1`: the IC50 was greater than 2000 nM.

`COc1cc(OC)c2c(c1)C1=NCCN1C(NC(=O)c1ccc(NC(C)=O)nc1)=N2` registered a half-maximal inhibitory concentration (IC50) of 100 to 500 nM.

Regarding `O/C(=C\C1=Nc2ccccc2C2=NCCN12)c1ccncc1`, the IC50 fell in the range of 100 to 500 nM.

`Nc1ccc(C(=O)NC2=Nc3ccccc3C3=NCCN23)cn1`: the IC50 was no more than 100 nM.

The molecule `NS(=O)(=O)c1ccc(C(=O)NC2=Nc3ccccc3C3=NCCN23)c(Cl)c1` registered an IC50 greater than 2000 nM.

As to `COc1cc2c(c(OC)c1C)N=C(NC(=O)c1cccnc1C)N1CCN=C21`, the IC50 was no more than 100 nM.

Molecule `COc1cc2c(cc1OC)C1=NCCN1C(NC(=O)c1ccc(NC(C)=O)nc1)=N2` gave a concentration for half-maximal inhibition (IC50) of 100 to 500 nM.

`COc1c(C)ccc2c1N=C(/C=C(\O)c1ccc(NC(C)=O)nc1)N1CCN=C21` had an IC50 of no more than 100 nM.

Take `COc1cc2c(cc1OC)C1=NCCN1C(/C=C(\O)c1cccs1)=N2`: the IC50 lay in the range of 100 to 500 nM.

In turn, `Cc1ccc2c(c1)N=C(NC(=O)c1cccs1)N1CCN=C21` had an IC50 of 100 to 500 nM.

Molecule `COc1ccc2c(c1OC)N=C(NC(=O)c1ccc3[nH]cnc3c1)N1CCN=C21` showed an IC50 of no more than 100 nM.

`COc1ccc2c(c1OC)N=C(/C=C(\O)c1cccnc1)N1CCN=C21`: the IC50 is no more than 100 nM.

The molecule `COc1cccc2c1N=C(NC(=O)c1cc3cccnc3nc1C)N1CCN=C21` showed an IC50 of no more than 100 nM.

As to `CC(=O)Nc1ccc(/C(O)=C/C2=Nc3cc(N4CCOCC4)ccc3C3=NCCN23)cn1`, the IC50 is no more than 100 nM.

`CSc1ccc(C(=O)NC2=Nc3ccccc3C3=NCCN23)cc1` returned an IC50 greater than 2000 nM.

Broadly, the IC50 is the concentration that gives 50% inhibition. Low values mean greater potency in that assay, high ones weaker potency in that assay.
